This note sets out measurements from article PMC8592027, “Structure-Guided Design of D-Galactal Derivatives with High Affinity and Selectivity for the Galectin-8 N-Terminal Domain” (ACS Medicinal Chemistry Letters, 2021).

Test [1] addresses T1, galectin-8C (C-terminal domain) (Homo sapiens, UniProt O00214).
T1 construct: galectins (N = N-terminal domain, C = C-terminal domain)
T1 sequence (O00214 187-317 limits assumed): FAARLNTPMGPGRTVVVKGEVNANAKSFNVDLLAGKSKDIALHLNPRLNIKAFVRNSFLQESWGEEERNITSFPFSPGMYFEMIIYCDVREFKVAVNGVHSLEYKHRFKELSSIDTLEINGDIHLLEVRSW
Briefly: Competitive fluorescence polarization assay, galectin-8C. Format: binding. The settings on record: mean ± SEM of n = 4–8.

The target of another test is T2, galectin-2 (Homo sapiens, UniProt P05162).
T2 sequence (P05162 1-132): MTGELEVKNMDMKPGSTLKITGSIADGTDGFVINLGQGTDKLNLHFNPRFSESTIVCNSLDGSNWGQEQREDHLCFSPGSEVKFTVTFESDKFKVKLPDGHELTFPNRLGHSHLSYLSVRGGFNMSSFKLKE
Briefly: Competitive fluorescence polarization assay, galectin-2. Format: binding. The settings on record: mean ± SEM of n = 4–8.

Test [2] concerns IL-6 secretion from MDA-MB-231 cells. Briefly: Multiplexed cytokine assay, IL-6 secretion. It is filed as cell-based, human. The settings on record: 24 hours, vs untreated cells. As for the experimental part:
Figure 5 Effect of compounds 1 and 6a on the secretion of IL-6 and IL-8 expressed in pg/mL. The effects were measured after incubating the cells with the compounds at 10 and 100 μM. Compounds 1 and 6a reduce the secretion of IL-6 and IL-8 in a dose-dependent manner at 100 and 10 μM. Results shown are means ± SEM of three independent experiments. ns, not significant (p > 0.05); *p < 0.05 versus untreated controls.
Metabolic activity assay: […]
Briefly, the cells were treated with the selected compounds in 0.1% dimethyl sulfoxide (DMSO; vehicle), 0.1% DMSO (control vehicle), or medium (control) and seeded at a cell density of 5,500 cells/well (MDA-MB-231 cells) or 4 x 10^4 cells/well (K562 cells), 7000 cells/well (HepG2 cells) or 1 x 10^5 cells/well (human PBMCs) in duplicates (MDA-MB-231, K562, and […]) or triplicates for HepG2 cells (100 µL), in sterile 96-well plates. For the MDA-MB-231 and HepG2, the cells were left to adhere overnight before adding the compounds. The plates were then incubated for 24 hours (48 hours for HepG2), after which 15 µL of MTS reagent was added to each well. […]
HTX Multi-Mode; BioTek Instruments, Inc., VT, USA).
Multiplexed cytokine assay:
MDA-MB-231 cells were seeded in 96-well flat-bottom plates at a density of 2 x 10^4 cells/well in 100 µL of medium and allowed to adhere for 24 hours at 37 °C and 5% CO2. The medium was then replaced by a fresh medium containing the desired concentrations of compounds 1 and 6a, after which the cells were cells incubated again for 24 hours at 37 °C and 5% CO2. Cell-free supernatants were collected and stored at – 80 °C before the analysis. The cytokines secretion was assessed by BD Cytometric Bead Array Human inflammatory cytokine Kit (content: IL-1, IL-6, IL-8, IL-10, IL-12p). The flow cytometric analyses were performed on an Attune NxT flow cytometer (Thermo Fisher Scientific, Waltham, MA, USA). Standard curves were generated using recombinant cytokines provided in the kit, and the data were analyzed with FlowJo software (Tree Star, Inc., Ashland, OR). The results are expressed in pg/mL. Data are represented as means ± standard deviation (SD) from three representative independent experiments.
All experiments were performed at least twice, with average values expressed as means ± SD. All data were analyzed with the statistical software GraphPad Prism 8.0 (GraphPad Software, Inc., CA, USA). by one-way ANOVA followed with Dunnett’s multiple compar ison test. Differences were considered non-significant for p > 0.05, and significant (*) for p < 0.05.

Test [3] deals with T3, galectin-9N (N-terminal domain) (Homo sapiens, UniProt O00182).
T3 construct: galectins (N = N-terminal domain, C = C-terminal domain); made in house
Briefly: Competitive fluorescence polarization assay, galectin-9N. It is filed as binding. The settings on record: mean ± SEM of n = 4–8. As for the experimental part:
1. Competitive fluorescence polarization experiments:
Human galectins -1, -3, -4N, -4C, -7, -8N, -9N, and -9C were expressed and purified as previously described 30,41. Fluorescence polarisation experiments were performed using the PHERAstar FS plat e reader (software version 2.10 R3), and the fluorescence anisotropy of fluorescein tagged probes was measured by excitation at 485 nm and emission at 520 nm. The specific conditions for galectins -1, -3, -4N, -4C, -7, -8N, -9N, and -9C were kept as report ed30,41,42. The synthesised compounds were dissolved in pure DMSO at 20 mM concentration and diluted in PBS to 3-6 different concentrations, and each concentration was tested in duplicate. The highest inhibitor concentrations tested were 1.5 mM. The
(In general: In fluorescence polarisation assays a small probe gives low polarisation when free and higher when bound to something large.)

T3 sequence (O00182 17-148 limits assumed): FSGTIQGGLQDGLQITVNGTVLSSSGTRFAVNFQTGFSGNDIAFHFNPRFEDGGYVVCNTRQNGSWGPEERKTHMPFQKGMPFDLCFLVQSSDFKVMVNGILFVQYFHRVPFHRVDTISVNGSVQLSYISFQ

On to `Cn1c(CO[C@@H]2C=CO[C@H](CO)[C@@H]2O)nc2ccc(C(=O)O)cc21` [6a], for which the dissociation constant (Kd) (usually the free concentration of one partner at which half of the binding sites on the other are occupied at equilibrium, for simple one-to-one binding) in test [1] is 4000 ± 500 µM; at galectin-2, 1400 ± 24 µM; in test [3], 1400 ± 57 µM. Besides, in test [2] (10 μM, effect not significant), the “reduction in IL-6 secretion” value is “about 15%”. The “reduction of IL-6 secretion” value in test [2] (100 μM) is recorded as “about 65%”.
